In series [1] the target is CB2R. Also noted: method as in PMID 7776818, PMID 36542836, PMID 36657299, PMID 20393015. The settings on record: ± SEM; read-out: CB2R affinity Ki; cited from earlier work.
The target of series [2] is P-gp (Homo sapiens, UniProt P08183). Put plainly: P-gp interaction assay (Calcein-AM, MDCK-MDR1 cells). The procedure:
This experiment was carried out as described by Contino et al. with minor modifications. MDCK-MDR1 cells, stably overexpressing P-gp, (30.000 cells per well) were seeded into black CulturePlate96/wells plate with 100 µL medium and allowed to become confluent overnight. Each test compound solubilized in culture medium was added to cell monolayers, reaching the tested final concentrations (ranging from 0.1 to 100 µM). Each 96/wells plate was incubated at 37 °C for 30 min. […] Each well was washed 3 times with ice cold PBS. […] In these experimental conditions, Calcein cell accumulation in the absence and presence of tested compounds was evaluated and the fluorescence basal level was estimated in untreated cells. In treated wells the increase of fluorescence compared to basal level was measured. EC50 values were determined on the fluorescence increase percentage versus log [dose].

Series [3] concerns HGC27-S cells. Put plainly: Muse Ki67 cell proliferation assay. The class given is cell-based, human. The text has this: After the specified drug treatments, the cells were processed with the Muse Ki67 cell proliferation kit, which identified actively proliferating cells based on the expression of Ki67, a nuclear protein present in the active phases of the cell cycle (G1, S, G2, and M phases) and absent in the resting G0 phase. The Muse Ki67 Proliferation Assay was used with the Guava Muse Cell Analyzer according to the manufacturer’s instructions (Luminex Corporation, Austin, USA). Briefly, the cells were stained after fixation and permeabilization procedures, using Hu Ki67 or Hu IgG1 control fluorochrome-conjugated antibodies to distinguish Ki67(+) or Ki67(-) cells, respectively. The software provided the percentage of both Ki67(+) and Ki67(-) cells.

Series [4] concerns AGS cells. As to the kind of experiment: MTT cytotoxicity assay. The class given is cell-based, human. The settings on record: read-out: Cytotoxic activity IC50±SEM. The procedure: (§1) Cell viability was checked with the MTT assay at 48 h and 72 h [24]in HGC27-S/R and AGS gastric cancer cell lines. On day 1, 5000 cells/well were seeded into 96-well plates in a volume of 100 µL. On day 2, each drug was added at the concentrations: 0.1µM, 1µM, 10µM, 30µM, 50µM, 100µM. In all the experiments, the various drug-solvents (ethanol, DMSO) were added in each control to evaluate a possible solvent cytotoxicity. After the established incubation time with drugs (48 h, 72 h), MTT (0.5 mg/mL) was added to each well, and after 3 h incubation at 37 °C, the supernatant was removed. The formazan crystals were solubilized using 100 µL of DMSO and the absorbance values at 570 and 630 nm were determined on the microplate reader Victor 3 from PerkinElmer Life Sciences. Results are expressed as mean ± SD of 3 independent experiments in triplicate.
Background: Tetrazolium assays rely on reduction of a dye to a coloured formazan, in cell work by metabolically active cells.

The subject of series [5] is HGC27-S cells. Put plainly: MTT cytotoxicity assay. The class given is cell-based, human. The settings on record: read-out: Cytotoxic activity IC50±SEM. The procedure: as §1
In series [6] the test system is HGC27-R cells. Put plainly: MTT cytotoxicity assay. The class given is cell-based, human. The settings on record: read-out: Cytotoxic activity IC50±SEM. As for the experimental part:
as §1

The subject of series [7] is CB2R. Set-up: method as in PMID 7776818, PMID 10188977, PMID 36657299, PMID 20393015. Conditions: cited from earlier work.
For series [8], the system named is NCI-N87 cells. As to the kind of experiment: Muse caspase 3/7 activation assay. The class given is cell-based, human. The source says:
(§2) After the specified drug treatments, the cells were processed using the Muse Annexin V/Dead Cell Assay Kit (Luminex Corporation, Austin, USA) for quantitative analysis of live, early/ late apoptotic, and dead cells on a Muse Cell Analyzer. Briefly, the assay utilized Annexin V to detect phosphatidylserine on the external membrane of apoptotic cells. The fluorescent signal emitted by dye-conjugated antibodies was detected by flow cytometry technology (Muse Cell Analyzer, Luminex Corporation, Austin, USA). 7-Amino-Actinomycin D (7-AAD) dead cell marker was also used. The cells were then analyzed according to the user’s guide. […] After 48 h treatments the cells were processed according to the user’s guide and analyzed with the Muse caspase-3/7 kit (Millipore).The assay provides the relative percentage of living, early/late apoptotic or dead cells.

Series [9] relates to HGC27-S cells. Put plainly: Muse caspase 3/7 activation assay. The class given is cell-based, human. Conditions: 48 h.
From the text: as §2

Series [10] deals with HGC27-R cells. As to the kind of experiment: Muse caspase 3/7 activation assay. Type of series: cell-based, human. The settings on record: 48 h.
From the text: as §2

In series [11] the test system is NCI-N87 cells. As to the kind of experiment: MTT cytotoxicity assay. The class given is cell-based, human. The settings on record: read-out: Cytotoxic activity IC50±SEM.
[12] abbreviates: read-out: P-gp activity, EC50, ± SEM, MDCK-MDR1 cells, Calcein-AM.
Setting [13] is: NCI-N87, combination with 2 nM PTX, PTX alone 14.6%.
[14] abbreviates: NCI-N87, single treatment (2 nM PTX, 6 µM AM630, 10 µM others), untreated 6.35%.
[15] abbreviates: combination with 4 nM PTX, PTX alone 26.2%.
Where [16] appears, read: single treatment (4 nM PTX, 6 µM AM630, 10 µM others), untreated 13.05%.
Setting [17] is: single treatment (4 nM PTX, 6 µM AM630, 10 µM others), untreated 18.9%.
Setting [18] is: HGC27-S, representative flow cytometry chart, 48 h, 10 µM CC48, PTX, single or combined as labelled.

Like-named read-outs stand apart in the source and are kept apart here.

P-gp, sequence (P08183 whole entry): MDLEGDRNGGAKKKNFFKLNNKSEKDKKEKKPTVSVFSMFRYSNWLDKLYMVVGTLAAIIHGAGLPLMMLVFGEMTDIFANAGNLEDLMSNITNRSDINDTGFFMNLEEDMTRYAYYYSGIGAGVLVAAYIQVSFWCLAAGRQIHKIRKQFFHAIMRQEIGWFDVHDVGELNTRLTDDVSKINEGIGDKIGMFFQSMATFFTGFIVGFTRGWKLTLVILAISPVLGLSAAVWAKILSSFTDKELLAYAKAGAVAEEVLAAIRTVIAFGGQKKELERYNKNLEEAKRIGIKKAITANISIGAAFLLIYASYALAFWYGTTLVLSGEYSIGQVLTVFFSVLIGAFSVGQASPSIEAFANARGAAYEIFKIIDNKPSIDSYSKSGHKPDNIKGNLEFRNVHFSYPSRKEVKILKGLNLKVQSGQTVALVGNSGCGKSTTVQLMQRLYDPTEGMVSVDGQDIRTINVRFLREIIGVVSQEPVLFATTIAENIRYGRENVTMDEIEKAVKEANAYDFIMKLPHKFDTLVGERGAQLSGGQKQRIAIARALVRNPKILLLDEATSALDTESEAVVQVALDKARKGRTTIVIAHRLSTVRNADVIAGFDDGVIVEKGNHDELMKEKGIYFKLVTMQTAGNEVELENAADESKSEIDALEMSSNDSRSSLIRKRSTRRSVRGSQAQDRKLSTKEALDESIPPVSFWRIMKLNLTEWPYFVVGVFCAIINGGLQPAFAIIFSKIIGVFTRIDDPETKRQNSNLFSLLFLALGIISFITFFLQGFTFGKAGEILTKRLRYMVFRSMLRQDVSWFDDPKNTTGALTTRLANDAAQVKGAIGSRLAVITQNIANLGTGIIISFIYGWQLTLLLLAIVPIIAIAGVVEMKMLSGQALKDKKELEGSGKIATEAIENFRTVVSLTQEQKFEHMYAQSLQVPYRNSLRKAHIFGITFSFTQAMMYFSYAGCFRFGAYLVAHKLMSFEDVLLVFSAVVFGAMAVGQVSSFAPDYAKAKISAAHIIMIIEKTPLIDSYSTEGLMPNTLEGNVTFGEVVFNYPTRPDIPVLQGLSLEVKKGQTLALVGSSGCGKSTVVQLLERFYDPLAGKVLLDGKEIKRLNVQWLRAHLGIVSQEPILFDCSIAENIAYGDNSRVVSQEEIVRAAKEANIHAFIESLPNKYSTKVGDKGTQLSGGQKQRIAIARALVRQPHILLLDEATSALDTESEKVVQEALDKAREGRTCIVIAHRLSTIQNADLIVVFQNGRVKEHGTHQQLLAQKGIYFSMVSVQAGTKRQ

In the case of `CCCCCNc1ccccc1C(=O)NC12CC3CC(CC(C3)C1)C2` [ASF151], the Ki in series [1] is 55.7 ± 10.2 nM. In addition, the “interaction with P-gp (in words)” value in series [2] (MDCK-MDR1 cells, Calcein-AM) is listed as “excluded interaction with P-gp”. Further, the half-maximal effective concentration (EC50) in series [2] (setting [12]) was greater than 100 µM; in series [7], 560 nM. Also, the “percentage of Ki67+ cells” value in [3] worked out at 38.6%. In addition, the IC50 in series [4] (48h) is 33 µM; in [4] (72h), 42.3 ± 2.2 µM; in series [5] (48h) it was 49 µM; in [5] (72h) it was 30.1 ± 0.95 µM; in series [6] (48h) it was 27.4 µM; in series [6] (72h), 28 ± 0.63 µM. Moreover, the values for the 50% inhibitory concentration (IC50) in [11] (48h) and in series [11] (72h) were 33.1 µM and 29.3 ± 3.84 µM, respectively. In addition, the results for the “cells with activated caspase 3/7” value in [8] (setting [13]) and in series [8] (setting [14]) were 15.9% and 9.5%, respectively. Also, the “apoptotic cells (caspase 3/7 activation)” value in series [9] (setting [15]) is “no further increase over PTX”; in [9] (setting [16]) it was 20.25%; in [10] (combination with 4 nM PTX), 50.4%; in [10] (setting [17]) it was 42%.
As to `COc1ccc(C(=O)c2c(C)n(CCN3CCOCC3)c3cc(I)ccc23)cc1` [AM630, reference compound], the Ki in [1] was 31.2 nM. Moreover, the “interaction with P-gp (in words)” value in series [2] (MDCK-MDR1 cells, Calcein-AM) is listed as “low interaction with the pump”. For the same compound, the figures for the EC50 in [2] (setting [12]) and in [7] were 16.8 ± 3.2 µM and 0.9 nM, respectively. In [3], the “percentage of Ki67+ cells” value was determined as 40.1%. In addition, the IC50 in series [4] (48h) came out at 13.4 µM; in [4] (72h), 7.5 ± 1.2 µM; in series [5] (48h), 20.4 µM; in [5] (72h) it was 13.7 ± 1.4 µM; in series [6] (48h), 19.6 ± 6.15 µM; in series [6] (72h), 19.1 ± 0.93 µM. The results for the IC50 in [11] (48h) and in series [11] (72h) were 22.7 µM and 15.6 ± 0.26 µM, respectively. Further, the “cells with activated caspase 3/7” value in series [8] (setting [13]) turned out to be 15.9%; in series [8] (setting [14]), 9.5%. Also, the “apoptotic cells (caspase 3/7 activation)” value is 44.3% in series [9] (setting [15]), “only a slight increase” in [9] (setting [16]), 62.4% in [10] (combination with 4 nM PTX) and 32.9% in series [10] (setting [17]).
Regarding `O=C(NC12CC3CC(CC(C3)C1)C2)c1ccccc1OCc1ccccc1` [CC48], the inhibition constant Ki in series [1] is 14.8 ± 4.49 nM. Besides, the EC50 in series [2] is 7.75 ± 1.25 µM; in series [7], 124 nM. Further, in series [2] (MDCK-MDR1 cells, Calcein-AM), the “interaction with P-gp (in words)” value is recorded as “moderate interaction with P-gp”. For the same compound, the “percentage of Ki67+ cells” value is on record as 42.3% in [3] (HGC27-S, 48 h, combination with 4 nM PTX (10 µM compound; 6 µM AM630), PTX alone 58.1%) and 75.75% in series [3] (HGC27-S, 48 h, single treatment (10 µM CC48; 4 nM PTX), control 80.50%). The “Ki67(+) cells” value in series [3] (setting [18]) amounted to 75.75%. Also, in series [3] (setting [18]), the “Ki67(-) cells” value is reported as 24.25%. The IC50 in [4] (Homo sapiens, 48h) was 57 µM; in series [4] (Homo sapiens, 72h), 9.8 µM; in series [5] (Homo sapiens, 48h), 11.6 µM; in series [5] (Homo sapiens, 72h) it was 14.5 ± 0.34 µM; in series [6] (48h), 21.01 ± 0.002 µM; in series [6] (Homo sapiens, 48 h), 21 µM. For the same compound, the IC50 in series [6] (Homo sapiens, 72 h) amounted to 21.2 ± 0.41 µM; in series [11] (Homo sapiens, 48h), 15.1 µM; in [11] (Homo sapiens, 72h), 9.42 ± 0.22 µM. Further, the “cells with activated caspase 3/7” value in [8] (setting [13]) came out at 23.3%; in [8] (setting [14]), 17.4%. The dead cells is recorded as 10.4% in [8] (NCI-N87, single treatment, control 5.8% / 5.6%) and “without affecting the number of dead cells” in series [9] (single treatment, untreated 6.6%). The “apoptotic cells (caspase 3/7 activation)” value in series [9] (setting [15]) worked out at 62.7%; in series [9] (setting [16]), 21%; in series [10] (combination with 4 nM PTX), 61.4%; in [10] (setting [17]), 33.8%.

What is called Ki is the dissociation constant of the complex between target and ligand, obtained from inhibition or displacement. A word on the EC50: it is the concentration giving half of the maximal effect. By IC50 is commonly meant the point on the concentration scale where inhibition reaches its midpoint.

The record behind these values is publication PMC12265377, “CC48 a new CB2R agonist/FAAH inhibitor dual drug blocks gastric cancer progression and overcomes paclitaxel resistance” (Journal of Experimental & Clinical Cancer Research : CR, 2025).
